#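 The concentration for 50% growth inhibition is given as GI50. TGI: total growth inhibition.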
# Key:
# Test in all cases: DTP human tumour cell line panel, 384-well format
# MALME-3M melanoma = tested on: MALME-3M melanoma
# MOLT-4 leukemia = tested on: MOLT-4 leukemia
# KM12 colon = tested on: KM12 colon
# HCC-2998 colon = tested on: HCC-2998 colon
# NCI-H460 NSCLC = tested on: NCI-H460 NSCLC
# HCT-116 colon = tested on: HCT-116 colon
# SNB-19 CNS = tested on: SNB-19 CNS
# OVCAR-5 ovarian = tested on: OVCAR-5 ovarian
# M14 melanoma = tested on: M14 melanoma
# HS 578T breast = tested on: HS 578T breast
# ACHN renal = tested on: ACHN renal
# LOX IMVI melanoma = tested on: LOX IMVI melanoma
# SK-MEL-5 melanoma = tested on: SK-MEL-5 melanoma
# HT29 colon = tested on: HT29 colon
# SK-OV-3 ovarian = tested on: SK-OV-3 ovarian
# RPMI-8226 leukemia = tested on: RPMI-8226 leukemia
# HCT-15 colon = tested on: HCT-15 colon
# SNB-75 CNS = tested on: SNB-75 CNS
# HL-60(TB) leukemia = tested on: HL-60(TB) leukemia
# PC-3 prostate = tested on: PC-3 prostate
# A498 renal = tested on: A498 renal
# SF-295 CNS = tested on: SF-295 CNS
# UACC-62 melanoma = tested on: UACC-62 melanoma
# OVCAR-4 ovarian = tested on: OVCAR-4 ovarian
# U251 glioblastoma = tested on: U251 glioblastoma
# CAKI-1 renal = tested on: CAKI-1 renal
# SK-MEL-28 melanoma = tested on: SK-MEL-28 melanoma
# NCI-H322M lung = tested on: NCI-H322M lung
# SF-539 CNS = tested on: SF-539 CNS
# SF-268 CNS = tested on: SF-268 CNS
# UACC-257 melanoma = tested on: UACC-257 melanoma
# NCI/ADR-RES ovarian = tested on: NCI/ADR-RES ovarian
# BT-549 breast = tested on: BT-549 breast
# NCI-H23 lung = tested on: NCI-H23 lung
# NCI-H522 lung = tested on: NCI-H522 lung
# NCI-H226 lung = tested on: NCI-H226 lung
# MDA-MB-231 breast = tested on: MDA-MB-231 breast
# IGROV1 ovarian = tested on: IGROV1 ovarian
# HOP-62 NSCLC = tested on: HOP-62 NSCLC
# K-562 leukemia = tested on: K-562 leukemia
# SW-620 colon = tested on: SW-620 colon
# TK-10 renal = tested on: TK-10 renal
# HOP-92 NSCLC = tested on: HOP-92 NSCLC
# COLO 205 colon = tested on: COLO 205 colon
# A549 NSCLC = tested on: A549 NSCLC
# MCF7 breast = tested on: MCF7 breast
# 786-0 renal = tested on: 786-0 renal
# MDA-MB-468 breast = tested on: MDA-MB-468 breast
# DU-145 prostate = tested on: DU-145 prostate
# T-47D breast = tested on: T-47D breast
# OVCAR-3 ovarian = tested on: OVCAR-3 ovarian
# SN12C renal = tested on: SN12C renal
# SK-MEL-2 melanoma = tested on: SK-MEL-2 melanoma
# MDA-MB-435 melanoma = tested on: MDA-MB-435 melanoma
# SR leukemia = tested on: SR leukemia
# RXF 393 renal = tested on: RXF 393 renal
# EKVX NSCLC = tested on: EKVX NSCLC
# CCRF-CEM leukemia = tested on: CCRF-CEM leukemia
compound,measurement,setting,value
CC(C)[C@H](O)C(=O)N[C@@H](C)C(=O)N[C@@H]1C(=O)N(C)CCc2ccccc21,GI50,MALME-3M melanoma,> 100 µM
same,TGI,MALME-3M melanoma,> 100 µM
same,GI50,MOLT-4 leukemia,> 100 µM
same,TGI,MOLT-4 leukemia,> 100 µM
same,GI50,KM12 colon,> 100 µM
same,TGI,KM12 colon,> 100 µM
same,GI50,HCC-2998 colon,> 100 µM
same,TGI,HCC-2998 colon,> 100 µM
same,GI50,NCI-H460 NSCLC,> 100 µM
same,TGI,NCI-H460 NSCLC,> 100 µM
same,GI50,HCT-116 colon,> 100 µM
same,TGI,HCT-116 colon,> 100 µM
same,GI50,SNB-19 CNS,> 100 µM
same,TGI,SNB-19 CNS,> 100 µM
same,GI50,OVCAR-5 ovarian,> 100 µM
same,TGI,OVCAR-5 ovarian,> 100 µM
same,GI50,M14 melanoma,> 100 µM
same,TGI,M14 melanoma,> 100 µM
same,GI50,HS 578T breast,> 100 µM
same,TGI,HS 578T breast,> 100 µM
same,GI50,ACHN renal,> 100 µM
same,TGI,ACHN renal,> 100 µM
same,GI50,LOX IMVI melanoma,> 100 µM
same,TGI,LOX IMVI melanoma,> 100 µM
same,GI50,SK-MEL-5 melanoma,> 100 µM
same,TGI,SK-MEL-5 melanoma,> 100 µM
same,GI50,HT29 colon,> 100 µM
same,TGI,HT29 colon,> 100 µM
same,GI50,SK-OV-3 ovarian,> 100 µM
same,TGI,SK-OV-3 ovarian,> 100 µM
same,GI50,RPMI-8226 leukemia,> 100 µM
same,TGI,RPMI-8226 leukemia,> 100 µM
same,GI50,HCT-15 colon,> 100 µM
same,TGI,HCT-15 colon,> 100 µM
same,GI50,SNB-75 CNS,> 100 µM
same,TGI,SNB-75 CNS,> 100 µM
same,GI50,HL-60(TB) leukemia,> 100 µM
same,TGI,HL-60(TB) leukemia,> 100 µM
same,GI50,PC-3 prostate,> 100 µM
same,TGI,PC-3 prostate,> 100 µM
same,GI50,A498 renal,> 100 µM
same,TGI,A498 renal,> 100 µM
same,GI50,SF-295 CNS,> 100 µM
same,TGI,SF-295 CNS,> 100 µM
same,GI50,UACC-62 melanoma,> 100 µM
same,TGI,UACC-62 melanoma,> 100 µM
same,GI50,OVCAR-4 ovarian,> 100 µM
same,TGI,OVCAR-4 ovarian,> 100 µM
same,GI50,U251 glioblastoma,> 100 µM
same,TGI,U251 glioblastoma,> 100 µM
same,GI50,CAKI-1 renal,> 100 µM
same,TGI,CAKI-1 renal,> 100 µM
same,GI50,SK-MEL-28 melanoma,> 100 µM
same,TGI,SK-MEL-28 melanoma,> 100 µM
same,GI50,NCI-H322M lung,> 100 µM
same,TGI,NCI-H322M lung,> 100 µM
same,GI50,SF-539 CNS,> 100 µM
same,TGI,SF-539 CNS,> 100 µM
same,GI50,SF-268 CNS,> 100 µM
same,TGI,SF-268 CNS,> 100 µM
same,GI50,UACC-257 melanoma,> 100 µM
same,TGI,UACC-257 melanoma,> 100 µM
same,GI50,NCI/ADR-RES ovarian,> 100 µM
same,TGI,NCI/ADR-RES ovarian,> 100 µM
same,GI50,BT-549 breast,> 100 µM
same,TGI,BT-549 breast,> 100 µM
same,GI50,NCI-H23 lung,> 100 µM
same,TGI,NCI-H23 lung,> 100 µM
same,GI50,NCI-H522 lung,> 100 µM
same,TGI,NCI-H522 lung,> 100 µM
same,GI50,NCI-H226 lung,> 100 µM
same,TGI,NCI-H226 lung,> 100 µM
same,GI50,MDA-MB-231 breast,> 100 µM
same,TGI,MDA-MB-231 breast,> 100 µM
same,GI50,IGROV1 ovarian,> 100 µM
same,TGI,IGROV1 ovarian,> 100 µM
same,GI50,HOP-62 NSCLC,> 100 µM
same,TGI,HOP-62 NSCLC,> 100 µM
same,GI50,K-562 leukemia,> 100 µM
same,TGI,K-562 leukemia,> 100 µM
same,GI50,SW-620 colon,> 100 µM
same,TGI,SW-620 colon,> 100 µM
same,GI50,TK-10 renal,> 100 µM
same,TGI,TK-10 renal,> 100 µM
same,GI50,HOP-92 NSCLC,> 100 µM
same,TGI,HOP-92 NSCLC,> 100 µM
same,GI50,COLO 205 colon,> 100 µM
same,TGI,COLO 205 colon,> 100 µM
same,GI50,A549 NSCLC,> 100 µM
same,TGI,A549 NSCLC,> 100 µM
same,GI50,MCF7 breast,> 100 µM
same,TGI,MCF7 breast,> 100 µM
same,GI50,786-0 renal,> 100 µM
same,TGI,786-0 renal,> 100 µM
same,GI50,MDA-MB-468 breast,> 100 µM
same,TGI,MDA-MB-468 breast,> 100 µM
same,GI50,DU-145 prostate,> 100 µM
same,TGI,DU-145 prostate,> 100 µM
same,GI50,T-47D breast,> 100 µM
same,TGI,T-47D breast,> 100 µM
same,GI50,OVCAR-3 ovarian,> 100 µM
same,TGI,OVCAR-3 ovarian,> 100 µM
same,GI50,SN12C renal,> 100 µM
same,TGI,SN12C renal,> 100 µM
same,GI50,SK-MEL-2 melanoma,> 100 µM
same,TGI,SK-MEL-2 melanoma,> 100 µM
same,GI50,MDA-MB-435 melanoma,> 100 µM
same,TGI,MDA-MB-435 melanoma,> 100 µM
same,GI50,SR leukemia,> 100 µM
same,TGI,SR leukemia,> 100 µM
same,GI50,RXF 393 renal,> 100 µM
same,TGI,RXF 393 renal,> 100 µM
same,GI50,EKVX NSCLC,> 100 µM
same,TGI,EKVX NSCLC,> 100 µM
same,GI50,CCRF-CEM leukemia,> 100 µM
same,TGI,CCRF-CEM leukemia,> 100 µM

# Reference: PubChem BioAssay (NCI)
